Experiment [1] relates to TNFα production in THP-1 cells. In words: LPS induced TNFα production assay in THP-1 cells. Type of experiment: cell-based. The note with it: Homo sapiens, 300 ng/mL LPS. As to the method: (§1) Provided compounds were also assayed in an LPS (Lipopolysacharide) or R848 (TLR-7 agonist) induced cytokine (TNFα and IL8) production assay in THP-1 cells, human peripheral blood mononuclear cells (hPBMC), and whole blood. The exemplary protocol for this assay in THP-1 cells was as follows below.
(§2) THP-1 cells from ATCC (TIB-202) were cultured in RPMI Medium 1640 (Invitrogen, Cat No. A10491-01), 10% fetal bovine serum (Invitrogen, Cat No. 10099141, Lot No. 8172882) containing 100 U/mL Penicillin, 100 μg/mL streptomycin (Invitrogen, Cat No. 15140-122), and 50 uM 2-Mercaptoethanol (Invitrogen, Cat No. 21985023). LPS-EK ultra pure (Invivogen, Cat No. tlrl-peklps) was used to induce IL8 and TNFα production, that was detected in the cell culture supernatant by IL8 HTRF kit (Cisbio, Cat No. 62IL8PEB) and TNFα HTRF kit (Cisbio, Cat No. 62TNFPEB), as per manufacturer instructions. Cells were cultured in 96 well assay plates at 100,000 cells per well, and compounds diluted in final 0.3% DMSO were pre-incubated with cells for 1 hour prior to stimulation with 300 ng/mL LPS. Cytokine production in cell supernatant was measured at 5 hours for TNFα and IL8 production, and for 16 hours for IL8 production and assessment of cell viability.

The subject of experiment [2] is IL8 production in THP-1 cells. Nature of the experiment: LPS induced IL8 production assay in THP-1 cells. Type of experiment: cell-based. The settings on record: Homo sapiens, 300 ng/mL LPS. As to the method:
as §1, §2

For experiment [3], the target named is T1, IRAK4 (Homo sapiens, UniProt Q9NWZ3).
T1 construct: purchased CARNA Bioscience 09-145
T1 sequence (Q9NWZ3 1-460): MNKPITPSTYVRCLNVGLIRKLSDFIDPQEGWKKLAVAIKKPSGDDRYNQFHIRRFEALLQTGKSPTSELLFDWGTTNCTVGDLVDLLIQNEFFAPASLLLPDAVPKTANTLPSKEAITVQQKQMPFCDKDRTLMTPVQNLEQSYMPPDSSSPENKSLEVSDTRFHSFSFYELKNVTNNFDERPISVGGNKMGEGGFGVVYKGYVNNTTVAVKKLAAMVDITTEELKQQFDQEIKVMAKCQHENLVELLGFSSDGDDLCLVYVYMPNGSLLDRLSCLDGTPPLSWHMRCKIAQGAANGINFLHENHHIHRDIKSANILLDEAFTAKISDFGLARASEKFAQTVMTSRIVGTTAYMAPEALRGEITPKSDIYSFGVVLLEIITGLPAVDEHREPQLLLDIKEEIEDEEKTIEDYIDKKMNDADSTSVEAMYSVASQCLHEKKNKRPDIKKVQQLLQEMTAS
Nature of the experiment: IRAK-4 activity inhibition assay (Caliper). The class given is biochemical. The settings on record: 3.5 nM IRAK4, 37 μM ATP, 1.5 μM Peptide 8. As to the method: A 1× kinase base buffer was prepared from 50 mM HEPES, pH 7.5 and 0.0015% Brij-35. A stop buffer was prepared from 100 mM HEPES, pH 7.5, 0.015% Brij-35, 0.2% Coating Reagent #3, and 50 mM EDTA.
Test compound was diluted to 50× of the final desired highest inhibitor concentration in reaction by 100% DMSO. 100 ul of this compound dilution was transferred to a well in a 96-well plate.
Test compound was serially diluted by transferring 30 μl to 60 μl of 100% DMSO in the next well and so forth for a total of 10 concentrations. 100 μl of 100% DMSO was added to two empty wells for no compound control and no enzyme control in the same 96-well plate.
A new 96-well plate was marked as intermediate plate. 5 μl of compound serial dilution was transferred from source plate to the corresponding wells of the intermediate plate. 45 μl of 1× kinase base buffer (KB buffer) was added to each well of the intermediate plate. The intermediate plate was placed for 10 min on a shaker.
5 μl of each well was transferred from the 96-well intermediate plate to a 384-well plate in duplicates. For example, A1 of the 96-well plate is transferred to A1 and A2 of the 384-well plate. A2 of the 96-well plate is transferred to A3 and A4 of the 384-well plate, and so on.
IRAK4 and DTT in 1× kinase base buffer was added. The 2.5× enzyme mix contained 8.8 nM IRAK4 and 5 mM DTT.
Peptide 8, ATP, MgCl2 and MnCl2 were added in the 1× kinase base buffer. The 2.5× peptide mix contained 3.75 μM peptide 8, 92.5 μM ATP, 12.5 mM MgCl2 and 2.5 mM MnCl2.
Assay plate already contained 5 μl of compound in 10% DMSO. Added 10 μl of 2.5× enzyme solution to each well of the 384-well assay plate, except no enzyme control wells. The final concentration of IRAK4 in reaction was 3.5 nM. Added 10 μl of 1× kinase base buffer to no enzyme control wells in the assay plate. Incubated at room temperature for 10 min.
Added 10 μl of 2.5× peptide solution to each well of the 384-well assay plate. The final concentration of Peptide 8 and ATP was 1.5 μM and 37 μM, respectively. Incubated at 28° C. for 40 minutes. Added 25 μl of stop buffer to stop reaction. Collected data on Caliper.
Copied conversion % data from Caliper program. Converted conversion % values to percent inhibition values. Percent inhibition=(max-conversion %)/(max-min)*100, where “max” means the conversion % of DMSO control and “min” means the conversion % of no enzyme control.

For experiment [4], the system named is TNF-α production in whole blood. In words: In vitro R848-induced TNF-α production in whole blood. The class given is cell-based. The note with it: Homo sapiens, R848 1 uM.

Each structure is given as a SMILES string.

With `c1nscc1Nc1nc(N[C@H]2CC[C@H](N3CCOCC3)CC2)c2c3c(sc2n1)CCC3` [Compound I-76], the results for the IC50 in experiment [1], in experiment [2] and in experiment [3] were at most 0.5 µM, at most 0.5 µM and at most 5 µM, respectively.
Regarding `Cn1cc(Nc2nc(O[C@H]3CC[C@H](N(C)C)CC3)c3c4c(sc3n2)CC[C@@H]4CC(N)=O)cn1` [Compound I-22, 2-[(3R)-12-[[4-(dimethylamino)cyclohexyl]oxy]-10-[(1-methyl-1H-pyrazol-4-yl)amino]-7-thia-9,11-diazatricyclo[6.4.0.0[2,6]]dodeca-1(8),2(6),9,11-tetraen-3-yl]acetamide], the IC50 in experiment [4] was at least 1 µM; in experiment [3], at most 5 µM.
As for `CN(C)[C@H]1CC[C@H](Nc2nc(Nc3ccccc3)nc3sc4c(c23)CCC4)CC1` [Compound I-75, 12-N-[4-(dimethylamino)cyclohexyl]-10-N-phenyl-7-thia-9,11-diazatricyclo[6.4.0.0[2,6]]dodeca-1(8),2(6),9,11-tetraene-10,12-diamine], the concentration for half-maximal inhibition (IC50) is 1 to 5 µM in experiment [1], 1 to 5 µM in experiment [2] and at most 5 µM in experiment [3].
For the compound `Cn1cc(Nc2nc(N[C@H]3CC[C@H](N(C)C)CC3)c3c4c(sc3n2)CCC4)cn1` [Compound I-72, 12-N-[4-(dimethylamino)cyclohexyl]-10-N-(1-methyl-1H-pyrazol-4-yl)-7-thia-9,11-diazatricyclo[6.4.0.0[2,6]]dodeca-1(8),2(6),9,11-tetraene-10,12-diamine], the IC50 in experiment [1] is at most 0.5 µM; in experiment [2], at most 0.5 µM; in experiment [3], at most 5 µM.
Take `CN(C)[C@H]1CC[C@H](Oc2nc(Nc3ccccc3)nc3sc4c(c23)[C@@H](CC(N)=O)CC4)CC1` [Compound I-24, 2-[(3R)-10-(phenylamino)-12-[[(1r,4r)-4-(dimethylamino)cyclohexyl]oxy]-7-thia-9,11-diazatricyclo[6.4.0.0[2,6]]dodeca-1(8),2(6),9,11-tetraen-3-yl]acetamide]: the figures for the 50% inhibitory concentration (IC50) in experiment [1], in experiment [2] and in experiment [3] were at most 0.5 µM, at most 0.5 µM and at most 5 µM, respectively.
In the case of `Cn1cc(Nc2nc(O[C@H]3CC[C@H](N4CCOCC4)CC3)c3c4c(sc3n2)CC[C@@H]4CC(N)=O)cn1` [Compound I-25], the concentration for half-maximal inhibition (IC50) in experiment [4] is at least 1 µM; in experiment [3], at most 5 µM.
As for `CN1CCN(c2ccc(Nc3nc(O[C@H]4CC[C@H](N(C)C)CC4)c4c5c(sc4n3)CCC5CC(N)=O)cc2)CC1` (stereo partly shown) [Compound I-19, 2-(4-(((1r,4r)-4-(dimethylamino)cyclohexyl)oxy)-2-((4-(4-methylpiperazin-1-yl)phenyl)amino)-6,7-dihydro-5H-cyclopenta[4,5]thieno[2,3-d]pyrimidin-5-yl)acetamide], the concentration for half-maximal inhibition (IC50) in experiment [2] is at least 5 µM; in experiment [3], at most 5 µM.
In the case of `Cn1cc(Nc2nc(O[C@H]3CC[C@H](N(C)C)CC3)c3c4c(sc3n2)CCC4)cn1` [Compound I-14, 12-[[4-(dimethylamino)cyclohexyl]oxy]-N-(1-methyl-1H-pyrazol-4-yl)-7-thia-9,11-diazatricyclo[6.4.0.0[2,6]]dodeca-1(8),2(6),9,11-tetraen-10-amine], the IC50 in experiment [1] was at most 0.5 µM; in experiment [2] it was at most 0.5 µM; in experiment [3] it was at most 5 µM.
With `Cn1cc(Nc2nc(O[C@H]3CC[C@H](N4CCOCC4)CC3)c3c4c(sc3n2)CCC4)cn1` [Compound I-73, N-(1-methyl-1H-pyrazol-4-yl)-12-[[4-(morpholin-4-yl)cyclohexyl]oxy]-7-thia-9,11-diazatricyclo[6.4.0.0[2,6]]dodeca-1(8),2(6),9,11-tetraen-10-amine], the IC50 in experiment [1] was 0.5 to 1 µM; in experiment [2] it was at most 0.5 µM; in experiment [3], at most 5 µM.
As to `CN1CCN(c2ccc(Nc3nc(O[C@H]4CC[C@H](N(C)C)CC4)c4c5c(sc4n3)CC[C@@H]5CC(N)=O)cc2)CC1` [Compound I-23], the figures for the concentration for half-maximal inhibition (IC50) in experiment [1], in experiment [2] and in experiment [3] were 1 to 5 µM, at least 5 µM and at most 5 µM, respectively.
In the same order, the values of `c1nocc1Nc1nc(N[C@H]2CC[C@H](N3CCOCC3)CC2)c2c3c(sc2n1)CCC3` [Compound I-77] are at most 0.5 µM, at most 0.5 µM and at most 5 µM.
In the same order, the values of `Cn1cc(Nc2nc(N[C@H]3CC[C@H](N4CCOCC4)CC3)c3c4c(sc3n2)CCC4)cn1` [Compound I-74, 10-N-(1-methyl-1H-pyrazol-4-yl)-12-N-[4-(morpholin-4-yl)cyclohexyl]-7-thia-9,11-diazatricyclo[6.4.0.0[2,6]]dodeca-1(8),2(6),9,11-tetraene-10,12-diamine] are at most 0.5 µM, at most 0.5 µM and at most 5 µM.
Take `Cn1cc(Nc2nc(N[C@H]3CC[C@H](O)CC3)c3c4c(sc3n2)CCC4)cn1` [Compound I-16, 4-([10-[(1-methyl-1H-pyrazol-4-yl)amino]-7-thia-9,11-diazatricyclo[6.4.0.0[2,6]]dodeca-1(8),2(6),9,11-tetraen-12-yl]amino)cyclohexan-1-ol]: the half-inhibitory concentration (IC50) in experiment [3] is at most 5 µM.
`Fc1cccc(Nc2nc(N[C@H]3CC[C@H](N4CCOCC4)CC3)c3c4c(sc3n2)CCC4)c1` [Compound I-3, N2-(3-fluorophenyl)-N4-((1r,4r)-4-morpholinocyclohexyl)-6,7-dihydro-5H-cyclopenta[4,5]thieno[2,3-d]pyrimidine-2,4-diamine] showed an IC50 in experiment [3] of at most 5 µM.
The compound `CN1CCC(c2ccc(Nc3nc(N[C@H]4CC[C@H](N(C)C)CC4)c4c5c(sc4n3)CCC5)cc2)CC1` [Compound I-67, N4-((1r,4r)-4-(dimethylamino)cyclohexyl)-N2-(4-(1-methylpiperidin-4-yl)phenyl)-6,7-dihydro-5H-cyclopenta[4,5]thieno[2,3-d]pyrimidine-2,4-diamine] registered an IC50 in experiment [3] of at most 5 µM.
With `c1c[nH]c(Nc2nc(N[C@H]3CC[C@H](N4CCOCC4)CC3)c3c4c(sc3n2)CCCC4)n1` [Compound I-12, 5-N-(1H-imidazol-2-yl)-3-N-[4-(morpholin-4-yl)cyclohexyl]-8-thia-4,6-diazatricyclo[7.4.0.0[2,7]]trideca-1(9),2(7),3,5-tetraene-3,5-diamine], the 50% inhibitory concentration (IC50) in experiment [3] was 20 to 50 µM.

What is called IC50 is the concentration needed to halve the response being measured. Higher therefore signals a need for much substance.

The values above are taken from US9175007B2, “IRAK inhibitors and uses thereof” (Nimbus Iris, Inc., priority 2013, dated 2015).
